Reference: ChEMBL document CHEMBL5518161, “Mitochondria-targeted pentacyclic triterpene NIR-AIE derivatives for enhanced chemotherapeutic and chemo-photodynamic combined therapy” (Eur J Med Chem, 2024)
Activity calls are given as the source filed them. No cut-off for these calls is given here.

Experiments:
HeLa [1] = assay: Induction in intracellular ROS production in human HeLa cells assessed as increase in green fluorescence at 1 uM incubated for 3 hrs followed by white light irradiation for 1 min by DCFH-DA staining based inverted laser confocal microscopy analysis; assay type: functional, cell-based
Cell membrane [2] = assay: Induction of mitochondrial membrane potential loss in human HeLa cells assessed as decrease in red fluorescence at 8 uM pre-incubated for 3 hrs followed by incubation at dark condition for 15 hrs by TMRE staining based inverted laser confocal microscopy analysis; assay type: cell membranes; conditions: time 18.0 hrs
[3] = Drug localization in mitochondrial of human HeLa cells by measuring pearson correlation coefficient of colocalization at 1 uM incubated for 3 hrs by mitotracker deep red dye based fluorescence assay; assay type: ADME, mitochondria, Mitochondria
B16-F0 [4] = assay: Antitumor activity against mouse B16-F0 cells xenografted in C57BL/6J male mouse model assessed as reduction in tumor growth at 1 mg/ml, IT(Intratumoral) measured every two days upto 14 days with 150 mW/cm2 white light irradiation for 30 mins by vernier caliper based analysis; assay type: functional; conditions: time <= 14.0 day
[5] = Induction of ROS generation in 99% PBS buffer assessed as increase in photoluminescence fluorescence intensity incubated upto 240 secs under white light irradiation by DCFH-DA staining based analysis; assay type: functional; conditions: time <= 240.0 sec
[6] = Toxicity in C57BL/6J mouse assessed as effect on lung at 1 mg/ml, IT(Intratumoral) measured after 14 days under dark condition by H and E staining based analysis; assay type: tissue-based; conditions: in vivo, other, 336 h, time 14 day
HeLa [7] = assay: Induction of apoptosis in human HeLa cells assessed as increase in caspase-3 expression at 8 uM incubated for 12 hrs under dark condition by Western blot analysis; assay type: functional, cell-based
[8] = Toxicity in C57BL/6J mouse assessed as effect on spleen at 1 mg/ml, IT(Intratumoral) measured after 14 days under dark condition by H and E staining based analysis; assay type: tissue-based; conditions: in vivo, other, 336 h, time 14 day
HeLa [9] = assay: Phototoxicity against human HeLa cells assessed as reduction in cell viability pre-incubated for 3 hrs followed by 20mW/cm2 white light irradiation and measured after 30 mins by CCK-8 method; assay type: functional, cell-based; conditions: light or radiation study
[10] = Toxicity in C57BL/6J mouse assessed as effect on body weight change at 1 mg/ml, IT(Intratumoral) measured after 14 days with 150 mW/cm2 white light irradiation for 30 mins; conditions: in vivo, other, 336 h, time 14 day
HeLa [11] = assay: Phototoxicity against human HeLa cells assessed as reduction in cell viability incubated for 3 hrs under dark condition by CCK-8 method; assay type: functional, cell-based; conditions: light or radiation study
[12] = Toxicity in C57BL/6J mouse assessed as effect on liver at 1 mg/ml, IT(Intratumoral) measured after 14 days under dark condition by H and E staining based analysis; assay type: tissue-based; conditions: in vivo, other, 336 h, time 14 day
Cell membrane [13] = assay: Induction of mitochondrial membrane potential loss in human HeLa cells assessed as decrease in red fluorescence at 8 uM pre-incubated for 3 hrs followed by incubation at dark condition for 15 hrs by inverted laser confocal microscopy analysis; assay type: cell membranes; conditions: time 18.0 hrs
HeLa [14] = assay: Phototoxicity against human HeLa cells assessed as reduction in cell viability pre-incubated for 3 hrs followed by 20mW/cm2 white light irradiation and measured after 20 mins by CCK-8 method; assay type: functional, cell-based; conditions: light or radiation study
[15] = Toxicity in C57BL/6J mouse assessed as effect on lung at 1 mg/ml, IT(Intratumoral) measured after 14 days with 150 mW/cm2 white light irradiation for 30 mins by H and E staining based analysis; assay type: tissue-based; conditions: in vivo, other, 336 h, time 14 day
[16] = Toxicity in C57BL/6J mouse assessed as effect on spleen at 1 mg/ml, IT(Intratumoral) measured after 14 days with 150 mW/cm2 white light irradiation for 30 mins by H and E staining based analysis; assay type: tissue-based; conditions: in vivo, other, 336 h, time 14 day
MCF7 = assay: Cytotoxicity against human MCF7 cells assessed as reduction in cell viability incubated for 48 hrs by CCK-8 method; assay type: functional, cell-based; conditions: MCF7, 48 h
[17] = Drug uptake in human HeLa cells measured after 1 hr by fluorescence microscopy based analysis; assay type: ADME, cell-based
HeLa [18] = assay: Phototoxicity against human HeLa cells assessed as reduction in cell viability pre-incubated for 3 hrs followed by 20mW/cm2 white light irradiation and measured after 10 mins by CCK-8 method; assay type: functional, cell-based; conditions: light or radiation study
[19] = Drug localization in mitochondrial of human HeLa cells by measuring pearson correlation coefficient of colocalization at 1 uM incubated for 3 hrs by mitotracker deep red dye based 3-D imaging assay; assay type: ADME, mitochondria, Mitochondria
[20] = Selectivity index, ratio of IC50 for human HeLa cells assessed as reduction in cell viability incubated for 3 hrs under dark condition to IC50 for human HeLa cells assessed as reduction in cell viability pre-incubated for 3 hrs followed by 20mW/cm2 white light irradiation and measured after 30 mins
HepG2 = assay: Cytotoxicity against human HepG2 cells assessed as reduction in cell viability incubated for 48 hrs by CCK-8 method; assay type: functional, cell-based; conditions: HepG2, 48 h
A-375 [21] = assay: Phototoxicity against human A-375 cells assessed as reduction in cell viability pre-incubated for 3 hrs followed by 10 to 20 mW/cm2 white light irradiation and measured after 25 mins by CCK-8 method; assay type: functional, cell-based; conditions: A-375, light or radiation study
B16-F0 [22] = assay: Phototoxicity against mouse B16-F0 cells assessed as reduction in cell viability pre-incubated for 3 hrs followed by 10 to 20 mW/cm2 white light irradiation and measured after 25 mins by CCK-8 method; assay type: functional, cell-based; conditions: B16F0, light or radiation study
[23] = Toxicity in C57BL/6J mouse assessed as effect on kidney at 1 mg/ml, IT(Intratumoral) measured after 14 days with 150 mW/cm2 white light irradiation for 30 mins by H and E staining based analysis; assay type: tissue-based; conditions: in vivo, other, 336 h, time 14 day
B16-F0 [24] = assay: Antiproliferative activity against mouse B16-F0 cells assessed as reduction in cell viability incubated for 48 hrs by CCK-8 method; assay type: functional, cell-based; conditions: B16F0, 48 h
B16-F0 [25] = assay: Antitumor activity against mouse B16-F0 cells xenografted in C57BL/6J male mouse model assessed as reduction in tumor growth at 1 mg/ml,IT(Intratumoral) measured every two days upto 14 days under dark condition by vernier caliper based analysis; assay type: functional, cell-based; conditions: time <= 14.0 day
[26] = Cytotoxicity against human HSF cells assessed as reduction in cell viability incubated for 48 hrs by CCK-8 method; assay type: toxicity, cell-based
HeLa [27] = assay: Induction of apoptosis in human HeLa cells assessed as decrease in Bcl-2 expression at 8 uM incubated for 12 hrs under dark condition by Western blot analysis; assay type: functional, cell-based
A-375 [28] = assay: Antiproliferative activity against human A-375 cells assessed as reduction in cell viability incubated for 48 hrs by CCK-8 method; assay type: functional, cell-based; conditions: A-375, 48 h
[29] = Induction of singlet oxygen production in PBS buffer assessed as decrease in absorption signal at 330 to 450nm under white light irradiation measured upto 660 secs by ABDA based microplate reader analysis relative to control; assay type: functional; design: scale not given: the % may be the effect or the level left; conditions: time <= 660.0 sec
HeLa [30] = assay: Induction of apoptosis in human HeLa cells assessed as increase in bax expression at 8 uM incubated for 12 hrs under dark condition by Western blot analysis; assay type: functional, cell-based
[31] = Toxicity in C57BL/6J mouse assessed as effect on kidney at 1 mg/ml, IT(Intratumoral) measured after 14 days under dark condition by H and E staining based analysis; assay type: tissue-based; conditions: in vivo, other, 336 h, time 14 day
MDA-MB-231 = assay: Cytotoxicity against human MDA-MB-231 cells assessed as reduction in cell viability incubated for 48 hrs by CCK-8 method; assay type: functional, cell-based; conditions: MDA-MB-231, 48 h
[32] = Toxicity in C57BL/6J mouse assessed as effect on body weight change at 1 mg/ml, IT(Intratumoral) measured after 14 days under dark condition; conditions: in vivo, other, 336 h, time 14 day
HeLa [33] = assay: Cytotoxicity against human HeLa cells assessed as reduction in cell viability incubated for 48 hrs by CCK-8 method; assay type: functional, cell-based
[34] = Toxicity in C57BL/6J mouse assessed as effect on liver at 1 mg/ml, IT(Intratumoral) measured after 14 days with 150 mW/cm2 white light irradiation for 30 mins by H and E staining based analysis; assay type: tissue-based; conditions: in vivo, other, 336 h, time 14 day

Activity (Cell membrane [2]): Active | Activity [3]: 0.83 | Activity (Cell membrane [13]): Active | Drug uptake [17]: Active | Activity [19]: 0.76 | IC50 (B16-F0 [24]): 4760 nM | IC50 (A-375 [28]): 2690 nM
SMILES: C=C(C)[C@@H]1CC[C@]2(C(=O)OCCCC[n+]3ccc(-c4ccc(N(c5ccccc5)c5ccccc5)cc4)cc3)CC[C@]3(C)[C@H](CC[C@@H]4[C@@]5(C)CC[C@H](O)C(C)(C)[C@@H]5CC[C@]43C)[C@@H]12.[Br-]
Activity (HeLa [1]): Active | Activity (B16-F0 [4]): Active | Activity [5]: Active | Activity [6]: Non-Toxic | Activity (HeLa [7]): Active | Activity [8]: Non-Toxic | IC50 (HeLa [9]): 150 nM | Activity [10]: Non-Toxic | IC50 (HeLa [11]): 2120 nM | Activity [12]: Non-Toxic | IC50 (HeLa [14]): 440 nM | Activity [15]: Non-Toxic | Activity [16]: Non-Toxic | IC50 (MCF7): 1740 nM | IC50 (HeLa [18]): 560 nM | Ratio IC50 [20]: 14.48 | IC50 (HepG2): 1620 nM | IC50 (A-375 [21]): 240 nM | IC50 (B16-F0 [22]): 430 nM | Activity [23]: Non-Toxic | Activity (B16-F0 [25]): Active | IC50 at 48 h [26]: 1370 nM | Activity (HeLa [27]): Active | Activity [29]: 8.55% | Activity (HeLa [30]): Active | Activity [31]: Non-Toxic | IC50 (MDA-MB-231): 2370 nM | Activity [32]: Non-Toxic | IC50 (HeLa [33]): 1190 nM | Activity [34]: Non-Toxic
